Measurements as given in patent US5096918A, “Isoindoline nitromethane derivatives” (Imperial Chemical Industries PLC, priority 1989, dated 1992).

Biological target: T1, aldose reductase (Bos taurus, UniProt P16116)
T1 construct: isolated in known manner from bovine lenses; from tissue; host or cells: bovine lens
Test: in vitro inhibition of partially purified aldose reductase (reduction of glucose to sorbitol, spectrophotometric)
Format: biochemical
Settings: partially purified enzyme from bovine lenses
Description: Thus, partially purified aldose reductase is isolated in known manner from bovine lenses. The percentage inhibition of this enzyme's ability in vitro to catalyse the reduction of aldoses to polyhydric alcohols, and particularly to reduce glucose to sorbitol, caused by a test compound is then determined using standard spectrophotometric methods.

IC50 [nM]	Structure (SMILES)
330	O=[N+]([O-])CS(=O)(=O)N1CCCCC1 [Example 1, N-(nitromethylsulphonyl)piperidine]
880	O=[N+]([O-])CS(=O)(=O)N1CCOCC1 [N-(nitromethylsulphonyl)morpholine]
